# Data from patent US6589973B1, “Preparation of selective cyclooxygenase II inhibitors” (THEMIS Medicare Ltd., priority 2002, dated 2003).
# Columns and labels:
# [1] = background statement; cited from earlier work
# [2] = test system: Hot Plate Analgesometer in rats; assay: Central analgesic activity, hot plate (55° C) in rats; set-up: species or system Albino rats; conditions: rat, in vivo
Compound,solubility in water (in words) [1],other results
Cc1ccc(-c2cc(C(F)(F)F)nn2-c2ccc(S(N)(=O)=O)cc2)cc1 [Celecoxib],poorly soluble in water,–
COc1ccc(-c2cc(C(F)F)nn2-c2ccc(S(N)(=O)=O)cc2)cc1F [Deracoxib],poorly soluble in water,–
CC(C)=CCN1CCC2(C)c3cc(O)ccc3CC1C2C (centres unmarked) [Pentazocin],–,% Increase in Reaction Time (IRT) [2]: 92.85%; Basal Reaction Time (BRT) [2]: 6.33 ± 0.41 s; Latent Reaction Time (LRT) [2]: 11.66 ± 1.60 s
CS(=O)(=O)c1ccc(C2=C(c3ccccc3)C(=O)OC2)cc1 [Rofecoxib],poorly soluble in water,–
Cc1onc(-c2ccccc2)c1-c1ccc(S(N)(=O)=O)cc1 [Valdecoxib],poorly soluble in water,–
Itacoxib,poorly soluble in water,–
